What follows are molecules tested on HCT116 colorectal cancer cells (assay: Cisplatin sensitization assay (96 h cell viability MTS)). Conditions: compound and Cisplatin added simultaneously, Cisplatin sensitization value.
Format: cell-based
Outline: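 Viability read by MTS (1 h at 37° C) after 96 h co-exposure at 37° C, 5% CO2. Test compound and cisplatin were dosed simultaneously in a full concentration matrix, each 2-fold serially diluted from 10 μM final; sensitization values binned in μM.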
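Also: Test-compound concentration that lowers the Cisplatin IC50 by a set fold.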

| Compound | Cisplatin Sensitization Assay |
| --- | --- |
| Nc1nn2cc(F)cnc2c1C(=O)Nc1cncc(F)c1N1CCN(C(=O)C2CC3CCCCN3C2)CC1 (centres unmarked) [I-N-203, 2-amino-6-fluoro-N-(5-fluoro-4-(4-(octahydroindolizine-2-carbonyl)piperazin-1-yl)pyridin-3-yl)pyrazolo[1,5-a]pyrimidine-3-carboxamide] | +++ (Cisplatin sensitization value of <0.02 μM) |
| Cc1cncnc1-c1ccncc1NC(=O)c1c(N)nn2cc(F)cnc12 [I-C-67, 2-amino-6-fluoro-N-(4-(5-methylpyrimidin-4-yl)pyridin-3-yl)pyrazolo[1,5-a]pyrimidine-3-carboxamide] | ++ (Cisplatin sensitization value>0.02 μM but <0.2 μM) |
| Nc1nn2cc(F)cnc2c1C(=O)Nc1cncc(F)c1N1CCC(C(=O)N2CCNCC2)CC1 [I-G-12, 2-amino-6-fluoro-N-(5-fluoro-4-(4-(piperazine-1-carbonyl)piperidin-1-yl)pyridin-3-yl)pyrazolo[1,5-a]pyrimidine-3-carboxamide] | +++ (Cisplatin sensitization value of <0.02 μM) |
| CO[C@H]1CCN(C(=O)C2CCN(c3c(F)cncc3NC(=O)c3c(N)nn4cc(F)cnc34)CC2)C1 [I-G-99, (S)-2-amino-6-fluoro-N-(5-fluoro-4-(4-(3-methoxypyrrolidine-1-carbonyl)piperidin-1-yl)pyridin-3-yl)pyrazolo[1,5-a]pyrimidine-3-carboxamide] | +++ (Cisplatin sensitization value of <0.02 μM) |
| Cc1ncnn1-c1ccncc1NC(=O)c1c(N)nn2cc(F)cnc12 [I-N-162, 2-amino-6-fluoro-N-(4-(5-methyl-1H-1,2,4-triazol-1-yl)pyridin-3-yl)pyrazolo[1,5-a]pyrimidine-3-carboxamide] | ++ (Cisplatin sensitization value>0.02 μM but <0.2 μM) |
| Cc1cncc(NC(=O)c2c(N)nn3cc(F)cnc23)c1N1CCN(C2COC2)CC1 [I-N-16, 2-amino-6-fluoro-N-(5-methyl-4-(4-(oxetan-3-yl)piperazin-1-yl)pyridin-3-yl)pyrazolo[1,5-a]pyrimidine-3-carboxamide] | +++ (Cisplatin sensitization value of <0.02 μM) |
| COCC1CN(c2ccncc2NC(=O)c2c(N)nn3cc(Cl)cnc23)CCN1C (centres unmarked) [I-N-47, 2-amino-6-chloro-N-(4-(3-(methoxymethyl)-4-methylpiperazin-1-yl)pyridin-3-yl)pyrazolo[1,5-a]pyrimidine-3-carboxamide] | ++ (Cisplatin sensitization value>0.02 μM but <0.2 μM) |
| CC(C)(C)NC(=O)C1CCN(c2c(F)cncc2NC(=O)c2c(N)nn3cc(F)cnc23)CC1 [I-G-19, 2-amino-N-(4-(4-(tert-butylcarbamoyl)piperidin-1-yl)-5-fluoropyridin-3-yl)-6-fluoropyrazolo[1,5-a]pyrimidine-3-carboxamide] | ++ (Cisplatin sensitization value>0.02 μM but <0.2 μM) |
| N#CCc1cnc2c(C(=O)Nc3cnccc3OC3CCCCC3)c(N)nn2c1 [I-O-39, 2-amino-6-(cyanomethyl)-N-(4-(cyclohexyloxy)pyridin-3-yl)pyrazolo[1,5-a]pyrimidine-3-carboxamide] | +++ (Cisplatin sensitization value of <0.02 μM) |
| COC1CCN(c2ccncc2NC(=O)c2c(N)nn3cc(Cl)cnc23)CC1 [I-N-73, 2-amino-6-chloro-N-(4-(4-methoxypiperidin-1-yl)pyridin-3-yl)pyrazolo[1,5-a]pyrimidine-3-carboxamide] | +++ (Cisplatin sensitization value of <0.02 μM) |
| Nc1nn2cc(Cl)cnc2c1C(=O)Nc1cnccc1N1CCCC(N)C1 (centres unmarked) [I-N-55, 2-amino-N-(4-(3-aminopiperidin-1-yl)pyridin-3-yl)-6-chloropyrazolo[1,5-a]pyrimidine-3-carboxamide] | ++ (Cisplatin sensitization value>0.02 μM but <0.2 μM) |
| Cc1nnccc1-c1ccncc1NC(=O)c1c(N)nn2cc(F)cnc12 [I-C-31, 2-amino-6-fluoro-N-(4-(3-methylpyridazin-4-yl)pyridin-3-yl)pyrazolo[1,5-a]pyrimidine-3-carboxamide] | +++ (Cisplatin sensitization value of <0.02 μM) |
| Cc1ccn(-c2ccncc2NC(=O)c2c(N)nn3cc(F)cnc23)n1 [I-N-225, 2-amino-6-fluoro-N-(4-(3-methyl-1H-pyrazol-1-yl)pyridin-3-yl)pyrazolo[1,5-a]pyrimidine-3-carboxamide] | ++ (Cisplatin sensitization value>0.02 μM but <0.2 μM) |
| CN(C)C1CN(C2CCN(c3ccncc3NC(=O)c3c(N)nn4cc(Cl)cnc34)CC2)C1 [I-N-94, 2-amino-6-chloro-N-(4-(4-(3-(dimethylamino)azetidin-1-yl)piperidin-1-yl)pyridin-3-yl)pyrazolo[1,5-a]pyrimidine-3-carboxamide] | +++ (Cisplatin sensitization value of <0.02 μM) |
| CN1CCN2CCN(c3ccncc3NC(=O)c3c(N)nn4cc(F)cnc34)CC2C1=O (centres unmarked) [I-N-233, 2-amino-6-fluoro-N-(4-(8-methyl-9-oxohexahydro-1H-pyrazino[1,2-a]pyrazin-2(6H)-yl)pyridin-3-yl)pyrazolo[1,5-a]pyrimidine-3-carboxamide] | ++ (Cisplatin sensitization value>0.02 μM but <0.2 μM) |
| N#CCc1cnc2c(C(=O)Nc3cnccc3OC3CCC3)c(N)nn2c1 [I-O-36, 2-amino-6-(cyanomethyl)-N-(4-cyclobutoxypyridin-3-yl)pyrazolo[1,5-a]pyrimidine-3-carboxamide] | +++ (Cisplatin sensitization value of <0.02 μM) |
| Nc1nn2cc(F)cnc2c1C(=O)Nc1cncc(F)c1N1CCC(CN2CCOCC2)CC1 [I-N-149, 2-amino-6-fluoro-N-(5-fluoro-4-(4-(morpholinomethyl)piperidin-1-yl)pyridin-3-yl)pyrazolo[1,5-a]pyrimidine-3-carboxamide] | +++ (Cisplatin sensitization value of <0.02 μM) |
| Nc1nn2cc(F)cnc2c1C(=O)Nc1cnccc1N1CCCCC1 [I-N-152, 2-amino-6-fluoro-N-(4-(piperidin-1-yl)pyridin-3-yl)pyrazolo[1,5-a]pyrimidine-3-carboxamide] | +++ (Cisplatin sensitization value of <0.02 μM) |
| Nc1nn2cc(Cl)cnc2c1C(=O)Nc1cnccc1N1CCC(N2CCn3ccnc3C2)CC1 [I-N-102, 2-amino-6-chloro-N-(4-(4-(5,6-dihydroimidazo[1,2-a]pyrazin-7(8H)-yl)piperidin-1-yl)pyridin-3-yl)pyrazolo[1,5-a]pyrimidine-3-carboxamide] | ++ (Cisplatin sensitization value>0.02 μM but <0.2 μM) |
| Nc1nn2cc(F)cnc2c1C(=O)Nc1cncc(Cl)c1N1CCCC1 [I-N-281, 2-amino-N-(5-chloro-4-(pyrrolidin-1-yl)pyridin-3-yl)-6-fluoropyrazolo[1,5-a]pyrimidine-3-carboxamide] | +++ (Cisplatin sensitization value of <0.02 μM) |
| Cc1cc(C(=O)N2CCN(C)CC2)ccc1-c1ccncc1NC(=O)c1c(N)nn2cc(F)cnc12 [I-C-45, 2-amino-6-fluoro-N-(4-(2-methyl-4-(4-methylpiperazine-1-carbonyl)phenyl)pyridin-3-yl)pyrazolo[1,5-a]pyrimidine-3-carboxamide] | +++ (Cisplatin sensitization value of <0.02 μM) |
| Cc1nc(O[C@@H]2CCN(C)C2)ccc1-c1ccncc1NC(=O)c1c(N)nn2cc(F)cnc12 [I-C-41, (R)-2-amino-6-fluoro-N-(2-methyl-6-((1-methylpyrrolidin-3-yl)oxy)-[3,4′-bipyridin]-3′-yl)pyrazolo[1,5-a]pyrimidine-3-carboxamide] | +++ (Cisplatin sensitization value of <0.02 μM) |
| CS(=O)(=O)C1CN(C(=O)C2CCN(c3ccncc3NC(=O)c3c(N)nn4cc(F)cnc34)CC2)C1 [I-G-89, 2-amino-6-fluoro-N-(4-(4-(3-(methylsulfonyl)azetidine-1-carbonyl)piperidin-1-yl)pyridin-3-yl)pyrazolo[1,5-a]pyrimidine-3-carboxamide] | + (Cisplatin sensitization value>0.2 μM but <5 μM) |
| Nc1nn2cc(Cl)cnc2c1C(=O)Nc1cnccc1N1CCN2CCC[C@H]2C1 [I-N-71, (S)-2-amino-6-chloro-N-(4-(hexahydropyrrolo[1,2-a]pyrazin-2(1H)-yl)pyridin-3-yl)pyrazolo[1,5-a]pyrimidine-3-carboxamide] | +++ (Cisplatin sensitization value of <0.02 μM) |
| CN1CCN(c2c(F)cncc2NC(=O)c2c(N)nn3cc(F)cnc23)CC1=O [I-N-212, 2-amino-6-fluoro-N-(5-fluoro-4-(4-methyl-3-oxopiperazin-1-yl)pyridin-3-yl)pyrazolo[1,5-a]pyrimidine-3-carboxamide] | +++ (Cisplatin sensitization value of <0.02 μM) |
| N#CCc1cnc2c(C(=O)Nc3cnccc3OCCO)c(N)nn2c1 [I-O-33, 2-amino-6-(cyanomethyl)-N-(4-(2-hydroxyethoxy)pyridin-3-yl)pyrazolo[1,5-a]pyrimidine-3-carboxamide] | ++ (Cisplatin sensitization value>0.02 μM but <0.2 μM) |
| CN1CCC(OC2CCN(c3ccncc3NC(=O)c3c(N)nn4cc(F)cnc34)CC2)CC1 [I-N-154, 2-amino-6-fluoro-N-(4-(4-((1-methylpiperidin-4-yl)oxy)piperidin-1-yl)pyridin-3-yl)pyrazolo[1,5-a]pyrimidine-3-carboxamide] | +++ (Cisplatin sensitization value of <0.02 μM) |
| Nc1nn2cc(F)cnc2c1C(=O)Nc1cncc(F)c1N1CCN([C@H]2CCOC2)CC1 [I-N-125, (S)-2-amino-6-fluoro-N-(5-fluoro-4-(4-(tetrahydrofuran-3-yl)piperazin-1-yl)pyridin-3-yl)pyrazolo[1,5-a]pyrimidine-3-carboxamide] | +++ (Cisplatin sensitization value of <0.02 μM) |
| N#CCc1cnc2c(C(=O)Nc3cnccc3OCC(F)(F)F)c(N)nn2c1 [I-O-34, 2-amino-6-(cyanomethyl)-N-(4-(2,2,2-trifluoroethoxy)pyridin-3-yl)pyrazolo[1,5-a]pyrimidine-3-carboxamide] | ++ (Cisplatin sensitization value>0.02 μM but <0.2 μM) |
